Assay results: patent US11365200B2, “ATF3 induction compounds” (TAIPEI MEDICAL UNIVERSITY, priority 2017, dated 2022)

Columns and labels:
[1] = Echocardiography after transverse aortic banding (TAB) or sham surgery; type: in vivo, mice; conditions: for EF / FS / IVSd / IVSs / LVIDd / LVIDs / LVPWd / LVPWs / Heart Rate: i.p. treatment twice a week, echocardiography, mean; for Heart Rate: in bpm (unit assumed)
Experimental: For echocardiography, mice were anesthetized with pentobarbital (40 mg/kg body weight, i.p.) and then measurements were taken with ultrasound equipment (ATL Philips IE33, Ultrasound Machine System, CA, U.S.A.) using a 15-MHz probe. The left ventricular posterior wall thickness (LVPW), inter-ventricular septum thickness (IVS), and left ventricular lumen diameter at both end-systolic and end-diastolic phases were measured digitally on the M-mode tracings and averaged for three cardiac cycles. Fractional shortening (FS) and ejection faction (EF) were then calculated.
Male mice (weighing 25-30 g) were anesthetized by intraperitoneal injection of chloral hydrate (125 mg/kg). The TAB procedure was performed according to the description by Hu et al. (Hu P, Zhang D, Swenson L, Chakrabarti G, Abel E D, and Litwin S E (2003) Minimally invasive aortic banding in mice: effects of altered cardiomyocyte insulin signaling during pressure overload. Am J Physiol Heart Circ Physiol 285:H1261-H1269). Echocardiography was performed at week 10 after TAB or sham surgery.
The experimental timeline for TAB and ST32da therapy was as follows. Mice were pre or post treated with intraperitoneal ST32da (0.2 mg/kg) twice a week from 4th to 10th week after TAB procedure. Echocardiographic measurements were performed on mice before (week 4) and after (week 10) ST32da, ST32db, ST32c therapy in both the procedure group and the nonprocedure group. Parameters, including interventricular septum thickness at diastole (IVSd) and systole (IVSs), left ventricular internal diameter at diastole (LVIDd) and systole (LVIDs), left ventricular posterior wall thickness at diastole (LVPWd) and systole (LVPWs), fractional shortening of left ventricle, ejection fraction of left ventricle (EF), and heart rate (HR) are shown.

[2] = Animal model for obesity (45% high fat diet); type: in vivo; conditions: HFD-fed WT mice
ATF3 = ATF3 promoter luciferase platform (pGL4-ATF3 stable clones) for screening ATF3 inducers; type: cell-based; conditions: pGL4-ATF3 transfected 3T3-L1 preadipocytes and H9C2 cardiomyocytes
Text: The disclosure is directed to chromenone derivatives used as an ATF3 inducer compound and for treating and/or preventing obesity and obesity-related disorders. The compounds of this disclosure are obtained by: (1) transfecting a special DNA sequence of ATF3 (pGL4-ATF3) into 3T3-L1 preadipocytes and H9C2 cardiomyocytes; (2) using the stable clone as a platform for screening of drug for anti-obesity, anti-atherosclerosis, anti-cardiovascular disease and promotion of white-to-brown adipocyte transdifferentiation; and (3) using the platform for special drug screening. […] The invention further finds that these compounds have an inhibitory effect on obesity and obesity-induced diabetes and a facilitatory effect on white-to-brown adipocyte transdifferentiation, thereby increasing the body energy expenditure and suppressing diabetes. In addition, these compounds also can inhibit high blood pressure or hypoxia induced cardiomyopathy to increase heart function.
The invention uses a platform of ATF3 promoter luciferase to select AT3 inducer and confirms that these selected compounds can be used as anti-obesity, anti-diabetes and anti-heart disease drugs in view of the fact that these compounds have an inhibitory effect on obesity and obesity-induced diabetes and inhibition of high blood pressure or hypoxia induced cardiomyopathy, thereby increasing heart function. The platform of ATF3 promoter luciferase is created by transfecting a DNA sequence of ATF3 (pGL4-ATF3) into 3T3-L1 preadipocytes and H9C2 cardiomyocytes and using the stable clones as a platform for screening of drugs for anti-obesity, anti-atherosclerosis, anti-cardiovascular disease and promotion of white-to-brown adipocyte transdifferentiation. […]

[3] = GTT and ITT assays in HFD-fed mice; type: in vivo; conditions: HFD-fed WT mice, 0.5 mg/kg/day or 1 mg/kg/day
Experimental: Mice were fasted overnight for 16 h before receiving an intraperitoneal administration of 1.5 g glucose/kg body weight in saline. Blood samples were collected from the tail vein by tail snipping at 0, 15, 30, 45, 60, and 120 min, and plasma glucose and insulin levels were determined from those samples. An ITT was performed on mice after 1 h of fasting. Animals were intraperitoneally injected with 1.0 U insulin/kg body weight in saline. Blood samples were drawn from the tail vein at 0, 15, 30, 45 and 60 min for the measurement of plasma glucose levels. Plasma glucose levels in blood samples collected from tail veins were determined using a commercially available glucose meter (OneTouch Ultra blood glucose meter, LifeScan, Milpitas, Calif.). After the isolation of plasma from blood samples, insulin levels were determined by ELISA (Mercodia, Winston Salem, N.C.). To evaluate the degree of insulin resistance, values were calculated using the following homeostatic model of assessment of insulin resistance (HOMA-IR) formula: fasting glucose (in mg/dl)×fasting insulin (in mU/ml)/405.)

[4] = TAB mice, week 4 to 10 after TAB

| SMILES | TAB-induced LV dilatation ([1]; TAB mice) | contractility ([1]; TAB mice) | EF [1, 4] | FS [1, 4] | IVSd [1, 4] | IVSs [1, 4] | LVIDd [1, 4] | LVIDs [1, 4] | LVPWd [1, 4] | LVPWs [1, 4] | Heart Rate [1, 4] | EF ([1]; sham mice, week 4 to 10) | FS ([1]; sham mice, week 4 to 10) | IVSd ([1]; sham mice, week 4 to 10) | IVSs ([1]; sham mice, week 4 to 10) | LVIDd ([1]; sham mice, week 4 to 10) | LVIDs ([1]; sham mice, week 4 to 10) | LVPWd ([1]; sham mice, week 4 to 10) | LVPWs ([1]; sham mice, week 4 to 10) | Heart Rate ([1]; sham mice, week 4 to 10) | further results |
| --- | --- | --- | --- | --- | --- | --- | --- | --- | --- | --- | --- | --- | --- | --- | --- | --- | --- | --- | --- | --- | --- |
| C[C@@H]1c2c(c3ccc4ccccc4c3oc2=O)O[C@@H]1C [ST32db, (1R,2R)-1,2-dimethyl-1H-benzo[h]furo[3,2-c]chromen-11(2H)-one] | attenuated TAB-induced LV dilatation | increased contractility | 84.750% | 48.250% | 1.050 mm | 1.750 mm | 3.600 mm | 1.850 mm | 1.050 mm | 1.700 mm | 301.000 | 81.667% | 44.667% | 0.800 mm | 1.533 mm | 4.067 mm | 2.233 mm | 0.800 mm | 1.433 mm | 318.500 | HFD-induced obesity (body weight) ([2]; 1 or 10 mg/kg/day, FIG. 6A): could prevent HFD-induced obesity; ATF3 expression (screening for ATF3 inducers) (ATF3): induction of the above-mentioned ATF3 expression |
| CC1Cc2c(c3ccc4ccccc4c3oc2=O)O1 (stereo not shown) [ST32c, 2-methyl-1H-benzo[h]furo[3,2-c]chromen-11(2H)-one] | attenuated TAB-induced LV dilatation | increased contractility | 86.500% | 54.500% | 1.350 mm | 1.950 mm | 3.350 mm | 1.700 mm | 1.350 mm | 2.000 mm | 340.000 | 79.000% | 41.333% | 0.800 mm | 1.367 mm | 3.733 mm | 2.200 mm | 0.800 mm | 1.333 mm | 318.667 | HFD-induced obesity (body weight) ([2]; 0.5 mg/kg/day, FIG. 7): could prevent HFD-induced obesity; ATF3 expression (screening for ATF3 inducers) (ATF3): induction of the above-mentioned ATF3 expression |
| C[C@@H]1Oc2c(c(=O)oc3c2ccc2ccccc23)[C@H]1C [ST32da, (1R,2S)-1,2-dimethyl-1H-benzo[h]furo[3,2-c]chromen-11(2H)-one] | attenuated TAB-induced LV dilatation | increased contractility | 75.000% | 41.000% | 1.200 mm | 1.600 mm | 3.600 mm | 2.500 mm | 1.000 mm | 1.600 mm | 294.000 | 81.000% | 44.000% | 0.767 mm | 1.400 mm | 3.833 mm | 2.133 mm | 0.800 mm | 1.400 mm | 303.667 | HFD-induced obesity (percent of initial body weight) ([2]; 0.5 mg/kg/day or 1 mg/kg/day i.p., FIG. 5A left): could prevent HFD-induced obesity; adipose depot mass including iWAT, eWAT, mWAT, rWAT and BAT ([2]; 0.5 mg/kg/day or 1 mg/kg/day i.p., FIG. 5B): decreased adipose depot mass; liver weights ([2]; 0.5 mg/kg/day or 1 mg/kg/day i.p., FIG. 5C): did not affect liver weights; glucose tolerance (glucose tolerance test) ([3]; FIG. 5D): enhanced glucose tolerance; insulin sensitivity (insulin tolerance test) ([3]; FIG. 5E): improved inulin sensitivity; ATF3 expression (screening for ATF3 inducers) (ATF3): induction of the above-mentioned ATF3 expression |
